Experimental findings from patent publication US8946203B2, “Benzodioxane inhibitors of leukotriene production” (Boehringer Ingelheim International GmbH, priority 2012, dated 2015) are described below.

As a reminder, the IC50 is the point on the concentration scale where inhibition reaches its midpoint.

Where two headings read alike, the source gives them in different places.

One assay has as its target T1, human LTA4 hydrolase (Homo sapiens, UniProt P09960).
T1 sequence (P09960 1-611): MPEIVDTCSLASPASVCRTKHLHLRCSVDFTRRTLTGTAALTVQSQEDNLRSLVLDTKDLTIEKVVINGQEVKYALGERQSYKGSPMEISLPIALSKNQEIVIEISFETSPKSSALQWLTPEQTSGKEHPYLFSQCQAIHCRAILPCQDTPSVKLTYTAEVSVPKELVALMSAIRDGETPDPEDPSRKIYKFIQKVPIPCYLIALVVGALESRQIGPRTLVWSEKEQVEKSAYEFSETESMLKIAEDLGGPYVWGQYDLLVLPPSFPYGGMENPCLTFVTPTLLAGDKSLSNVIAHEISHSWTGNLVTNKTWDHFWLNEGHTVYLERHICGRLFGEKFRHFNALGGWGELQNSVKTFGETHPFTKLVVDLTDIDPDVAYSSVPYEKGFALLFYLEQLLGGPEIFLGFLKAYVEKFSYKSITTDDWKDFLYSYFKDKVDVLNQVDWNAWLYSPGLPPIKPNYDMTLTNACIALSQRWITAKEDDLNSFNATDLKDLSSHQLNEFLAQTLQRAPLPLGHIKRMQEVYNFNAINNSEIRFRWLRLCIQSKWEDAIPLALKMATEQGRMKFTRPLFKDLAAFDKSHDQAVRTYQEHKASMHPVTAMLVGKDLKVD
The experiment in a line: LTA4H Enzyme assay (cleavage of Arg-AMC, fluorescence). The class given is biochemical. A digest of the protocol: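 Aminomethylcoumarin release measured fluorimetrically (380/460 nm) after 1 h at room temperature. Reaction: 1 nM final enzyme, 50 μM final Arg-AMC and compound in Tris-HCl pH 7.5 with 100 mM KCl and 0.5% BSA.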

Assay [1] deals with synthesis of LTB4 in human whole blood. The experiment in a line: human whole blood (HWB) assay, LTB4 production inhibition after calcimycin stimulation. Type of assay: cell-based. The settings on record: heparinized human whole blood, calcimycin 20 μM, plasma LTB4 by HTRF. The method, then:
The compounds of the invention are additionally tested in a human whole blood (HWB) assay to determine their ability to inhibit the synthesis of LTB4 in a cellular system. Compounds are combined with heparinized human whole blood and incubated for 15 minutes at 37° C. Calcimycin (20 μM final, prepared in phosphate-buffered saline, pH 7.4) is then added and the mixture is incubated for another 30 minutes at 37° C. The samples are centrifuged for 5 min at low speed (1500×g) and the plasma layer is removed. Plasma LTB4 concentrations are then measured using an antibody-based homogenous time-resolved fluorescence method (CisBio, Bedford, Mass.). In general, the preferred potency range (IC50) of compounds in the HWB assay is between 10 nM to 10 μM, the more preferred potency range is 10 nM to 1 μM, and the most preferred potency range is 10 nM to 100 nM.

The mark [2] stands for this setting: LTA4H Enzyme 1 nM, Arg-AMC substrate 50 μM, room temperature 1 h, fluorescence, read-out: IC50 values of LTA4H Enzyme assay.

As for `CCN(C)Cc1ccc([C@H]2COc3cccnc3O2)cc1` [Example 140, N-{4-[(3S)-2,3-dihydro[1,4]dioxino[2,3-b]pyridin-3-yl]benzyl}-N-methylethanamine], the IC50 was 0.38 nM on human LTA4 hydrolase (setting [2]) and 33 nM in assay [1].

With `CCN(CC)Cc1ccc([C@H]2COc3cccnc3O2)cc1` [Example 141, N-{4-[(3S)-2,3-dihydro[1,4]dioxino[2,3-b]pyridin-3-yl]benzyl}-N-ethylethanamine], the 50% inhibitory concentration (IC50) at human LTA4 hydrolase (setting [2]) is 0.26 nM; in assay [1], 33 nM.

For `CN(Cc1ccc([C@H]2COc3cccnc3O2)cc1)C1CCCC1` [Example 142, N-{4-[(3S)-2,3-dihydro[1,4]dioxino[2,3-b]pyridin-3-yl]benzyl}-N-methylcyclopentanamine], the half-inhibitory concentration (IC50) is 0.17 nM on human LTA4 hydrolase (setting [2]) and 24 nM in assay [1].

On to `c1cnc2c(c1)OC[C@H](c1ccc(CN3[C@H]4CC[C@@H]3CC4)cc1)O2` [Example 145, (3S)-3-{4-[(1s,4s)-7-azabicyclo[2.2.1]hept-7-ylmethyl]phenyl}-2,3-dihydro[1,4]dioxino[2,3-b]pyridine], for which the values for the IC50 (on human LTA4 hydrolase; in assay [1]) were 0.09 nM and 28 nM, respectively.

On to `FC1CCN(Cc2ccc([C@H]3COc4cccnc4O3)cc2)CC1` [Example 155, (3S)-3-{4-[(4-fluoropiperidin-1-yl)methyl]phenyl}-2,3-dihydro[1,4]dioxino[2,3-b]pyridine], for which the IC50 on human LTA4 hydrolase (setting [2]) was 0.28 nM; in assay [1] it was 95 nM.

As for `c1cnc2c(c1)OC[C@H](c1ccc(CN3CCn4cnnc4C3)cc1)O2` [Example 156, (3S)-3-[4-(5,6-dihydro[1,2,4]triazolo[4,3-a]pyrazin-7(8H)-ylmethyl)phenyl]-2,3-dihydro[1,4]dioxino[2,3-b]pyridine], the figures for the half-maximal inhibitory concentration (IC50) (at human LTA4 hydrolase (setting [2]); in assay [1]) were 0.91 nM and 159 nM, respectively.

`COC1CCCN(Cc2ccc([C@H]3COc4cccnc4O3)cc2)C1` (stereo partly drawn) [Example 158, (3S)-3-{4-[(3-methoxypiperidin-1-yl)methyl]phenyl}-2,3-dihydro[1,4]dioxino[2,3-b]pyridine]: the 50% inhibitory concentration (IC50) on human LTA4 hydrolase (setting [2]) is 0.13 nM; in assay [1], 28 nM.

On to `CC(=O)NC1CCN(Cc2ccc([C@H]3COc4cccnc4O3)cc2)CC1` [Example 160, N-(1-{4-[(3S)-2,3-dihydro[1,4]dioxino[2,3-b]pyridin-3-yl]benzyl}piperidin-4-yl)acetamide], for which the IC50 worked out at 0.18 nM at human LTA4 hydrolase (setting [2]) and 28 nM in assay [1].

Consider `NC(=O)N1CCN(Cc2ccc([C@H]3COc4cccnc4O3)cc2)CC1` [Example 164, 4-{4-[(3S)-2,3-dihydro[1,4]dioxino[2,3-b]pyridin-3-yl]benzyl}piperazine-1-carboxamide], for which the values for the concentration for half-maximal inhibition (IC50) (at human LTA4 hydrolase (setting [2]); in assay [1]) were 0.84 nM and 100 nM, respectively.

For `COC1CCN(Cc2ccc([C@H]3COc4cccnc4O3)cc2)C1` (stereo partly drawn) [Example 168, (3S)-3-{4-[(3-methoxypyrrolidin-1-yl)methyl]phenyl}-2,3-dihydro[1,4]dioxino[2,3-b]pyridine], the values for the IC50 (on human LTA4 hydrolase (setting [2]); in assay [1]) were 0.31 nM and 39 nM, respectively.

Turning to `c1cnc2c(c1)OC[C@H](c1ccc(CNC3CCC3)cc1)O2` [Example 173, N-{4-[(3S)-2,3-dihydro[1,4]dioxino[2,3-b]pyridin-3-yl]benzyl}cyclobutanamine], the 50% inhibitory concentration (IC50) on human LTA4 hydrolase (setting [2]) came to 0.73 nM; in assay [1] it was 73 nM.

In the case of `CS(=O)(=O)N1CCC(NCc2ccc([C@H]3COc4ccccc4O3)cc2)CC1` [Example 174, N-{4-[(2S)-2,3-dihydro-1,4-benzodioxin-2-yl]benzyl}-1-(methylsulfonyl)piperidin-4-amine], the IC50 on human LTA4 hydrolase (setting [2]) came out at 0.6 nM; in assay [1] it was 268 nM.

Consider `NC(=O)NC1CCN(Cc2ccc([C@H]3COc4ccccc4O3)cc2)CC1` [Example 175, 1-(1-{4-[(2S)-2,3-dihydro-1,4-benzodioxin-2-yl]benzyl}piperidin-4-yl)urea], for which the results for the concentration for half-maximal inhibition (IC50) (on human LTA4 hydrolase (setting [2]); in assay [1]) were 0.22 nM and 73 nM, respectively.

For the molecule `CC(=O)NC1CCN(Cc2ccc([C@H]3COc4ccccc4O3)cc2)CC1` [Example 178, N-(1-{4-[(2S)-2,3-dihydro-1,4-benzodioxin-2-yl]benzyl}piperidin-4-yl)acetamide], the IC50 was 0.35 nM on human LTA4 hydrolase (setting [2]) and 160 nM in assay [1].

Turning to `O=C(O)C[C@@H]1CCCN(Cc2ccc([C@H]3COc4ccccc4O3)cc2)C1` [Example 183, [(3S)-1-{4-[(2S)-2,3-dihydro-1,4-benzodioxin-2-yl]benzyl}piperidin-3-yl]acetic acid], the concentration for half-maximal inhibition (IC50) at human LTA4 hydrolase (setting [2]) came out at 0.48 nM; in assay [1] it was 151 nM.

Turning to `CC(=O)N1CCN(Cc2ccc([C@H]3COc4cccnc4O3)cc2)CC1` [Example 185, 1-(4-{4-[(3S)-2,3-dihydro[1,4]dioxin[2,3-b]pyridin-3-yl]benzyl}piperazin-1-yl)ethanone], the IC50 is 0.59 nM at human LTA4 hydrolase (setting [2]) and 92 nM in assay [1].

On to `OC1CCN(Cc2ccc([C@H]3COc4cccnc4O3)cc2)CC1` [Example 186, 1-{4-[(3S)-2,3-dihydro[1,4]dioxino[2,3-b]pyridin-3-yl]benzyl}piperidin-4-ol], for which the IC50 was found to be 0.24 nM at human LTA4 hydrolase (setting [2]) and 36 nM in assay [1].

Take `NC(=O)NC1CCN(Cc2ccc([C@H]3COc4cccnc4O3)cc2)CC1` [Example 187, 1-(1-{4-[(3S)-2,3-dihydro[1,4]dioxino[2,3-b]pyridin-3-yl]benzyl}piperidin-4-yl)urea]: the values for the concentration for half-maximal inhibition (IC50) (at human LTA4 hydrolase (setting [2]); in assay [1]) were 0.07 nM and 177 nM, respectively.

For `CS(=O)(=O)NC1CCN(Cc2ccc([C@H]3COc4cccnc4O3)cc2)CC1` [Example 190, N-(1-{4-[(3S)-2,3-dihydro[1,4]dioxino[2,3-b]pyridin-3-yl]benzyl}piperidin-4-yl)methanesulfonamide], the half-inhibitory concentration (IC50) is 0.09 nM on human LTA4 hydrolase (setting [2]) and 26 nM in assay [1].

For the molecule `O=C(O)C1CCN(Cc2ccc([C@H]3COc4ccccc4O3)cc2)CC1` [Example 200, (S)-1-[4-(2,3-dihydro-benzo[1,4]dioxin-2-yl)-benzyl]-piperidine-4-carboxylic acid], the results for the half-maximal inhibitory concentration (IC50) (at human LTA4 hydrolase (setting [2]); in assay [1]) were 0.12 nM and 83 nM, respectively.

For the molecule `c1cnc2c(c1)OC[C@H](c1ccc(CN3CCOCC3)cc1)O2` [Example 204, (S)-3-(4-Morpholin-4-ylmethyl-phenyl)-2,3-dihydro-[1,4]dioxino[2,3-b]pyridine], the half-maximal inhibitory concentration (IC50) was 0.15 nM at human LTA4 hydrolase (setting [2]) and 95 nM in assay [1].

In the case of `O=C(O)[C@@H]1CCN(Cc2ccc([C@H]3COc4ccccc4O3)cc2)C1` [Example 214, (3R)-1-{4-[(2S)-2,3-dihydro-1,4-benzodioxin-2-yl]benzyl}pyrrolidine-3-carboxylic acid], the 50% inhibitory concentration (IC50) turned out to be 0.47 nM on human LTA4 hydrolase (setting [2]) and 169 nM in assay [1].

`COCC(=O)NC1CCN(Cc2ccc([C@H]3COc4ccccc4O3)cc2)CC1` [Example 219, N-(1-{4-[(2S)-2,3-dihydro-1,4-benzodioxin-2-yl]benzyl}piperidin-4-yl)-2-methoxyacetamide]: the concentration for half-maximal inhibition (IC50) at human LTA4 hydrolase (setting [2]) was 0.49 nM; in assay [1], 149 nM.

As to `CC(C)(O)C(=O)NC1CCN(Cc2ccc([C@H]3COc4ccccc4O3)cc2)CC1` [Example 220, N-(1-{4-[(2S)-2,3-dihydro-1,4-benzodioxin-2-yl]benzyl}piperidin-4-yl)-2-hydroxy-2-methylpropanamide], the values for the IC50 (on human LTA4 hydrolase (setting [2]); in assay [1]) were 0.47 nM and 91 nM, respectively.

In the case of `CC(c1ccc([C@H]2COc3ccccc3O2)cc1)N1CCC(C(=O)O)CC1` (stereo partly drawn) [Example 227, 1-{1-[(S)-4-(2,3-dihydro-benzo[1,4]dioxin-2-yl)-phenyl]-ethyl}-piperidine-4-carboxylic acid], the 50% inhibitory concentration (IC50) at human LTA4 hydrolase (setting [2]) is 1.4 nM; in assay [1], 307 nM.
